Reference: ChEMBL document CHEMBL4610049, “Structural modification of the aryl sulfonate ester of cjoc42 for enhanced gankyrin binding and anti-cancer activity” (Bioorg Med Chem Lett, 2020)
Active and inactive are the calls of the source. The rule behind the calls is not given here.

How the values were obtained:
[1] = target: T1, 26S proteasome non-ATPase regulatory subunit 10 (Homo sapiens) (UniProt O75832); assay: Binding affinity to gankyrin (unknown origin) assessed as fold increase in change in melting temperature at 300 uM by thermal shift assay relative to control
T1 sequence (whole entry): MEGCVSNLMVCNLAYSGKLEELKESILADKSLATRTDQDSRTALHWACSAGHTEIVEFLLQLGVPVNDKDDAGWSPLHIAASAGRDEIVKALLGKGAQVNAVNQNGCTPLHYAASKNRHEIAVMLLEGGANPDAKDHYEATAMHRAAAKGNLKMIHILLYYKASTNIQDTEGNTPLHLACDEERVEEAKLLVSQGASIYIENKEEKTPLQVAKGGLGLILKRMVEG

[2] = tested on: Hep 3B2; assay: Antiproliferative activity against human Hep3B cells assessed as reduction in cell viability incubated for 72 hrs by MTT assay; format: functional, cell-based
[3] = tested on: HepG2; assay: Antiproliferative activity against human HepG2 cells assessed as reduction in cell viability incubated for 72 hrs by MTT assay; format: functional, cell-based; conditions: HepG2, 72 h
[4] = tested on: Hep 3B2; assay: Antiproliferative activity against human Hep3B cells assessed as reduction in cell viability at 50 uM incubated for 72 hrs by MTT assay relative to control; format: functional
[5] = tested on: HepG2; assay: Antiproliferative activity against human HepG2 cells assessed as reduction in cell viability at 50 uM incubated for 72 hrs by MTT assay relative to control; format: functional; conditions: HepG2, 72 h

Activity [1]	IC50 [3]	SMILES	IC50 [2]	further results
inactive	–	COC(=O)c1ccc(-n2cc(CCCOS(=O)(=O)c3cccc(C)c3)nn2)cc1	–	–
–	36.9 µM	COC(=O)c1ccc(-n2cc(CCCOS(=O)(=O)c3cccc(OC)c3)nn2)cc1	20.9 µM	fold change (FC) [1]: 1.9
inactive	–	COC(=O)c1ccc(-n2cc(CCCOS(=O)(=O)c3ccccc3)nn2)cc1	–	–
Active	–	COC(=O)c1ccc(-n2cc(CCCOS(=O)(=O)c3cccc(C#N)c3)nn2)cc1	–	–
inactive	–	COC(=O)c1ccc(-n2cc(CCCOS(=O)(=O)c3cccc(Cl)c3)nn2)cc1	–	–
Active	> 50 µM	COC(=O)c1ccc(-n2cc(CCCOS(=O)(=O)c3ccc(C)cc3)nn2)cc1	> 50 µM	inhibition at 50 µM [4]: 0%; inhibition at 50 µM [5]: 0%
inactive	–	CCc1cccc(S(=O)(=O)OCCCc2cn(-c3ccc(C(=O)OC)cc3)nn2)c1	–	–
–	> 50 µM	COC(=O)c1ccc(-n2cc(CCCOS(=O)(=O)c3cccc(F)c3)nn2)cc1	> 50 µM	fold change (FC) [1]: 1.4; inhibition at 50 µM [4]: 0%; inhibition at 50 µM [5]: 0%
inactive	–	COC(=O)c1ccc(-n2cc(CCCOS(=O)(=O)c3cccc(C(=O)OC)c3)nn2)cc1	–	–
–	17.5 µM	COC(=O)c1ccc(-n2cc(CCCOS(=O)(=O)c3ccc(I)cc3)nn2)cc1	25.3 µM	fold change (FC) [1]: 1.7

Second part, the compound before the results:

SMILES	Activity [1]	IC50 [3]	IC50 [2]	further results
COC(=O)c1ccc(-n2cc(CCCOS(=O)(=O)c3ccc(C(C)C)cc3)nn2)cc1	inactive	–	–	–
CNC(=O)c1ccc(S(=O)(=O)OCCCc2cn(-c3ccc(C(=O)OC)cc3)nn2)cc1	inactive	–	–	–
CCc1ccc(S(=O)(=O)OCCCc2cn(-c3ccc(C(=O)OC)cc3)nn2)cc1	Active	–	–	–
COC(=O)c1ccc(-n2cc(CCCOS(=O)(=O)c3ccc(-c4ccccc4)cc3)nn2)cc1	–	46.2 µM	26 µM	fold change (FC) [1]: 2.3
COC(=O)c1ccc(-n2cc(CCCOS(=O)(=O)c3ccccc3C)nn2)cc1	–	> 50 µM	> 50 µM	fold change (FC) [1]: 2; inhibition at 50 µM [4]: 0%; inhibition at 50 µM [5]: 0%
COC(=O)c1ccc(-n2cc(CCCOS(=O)(=O)c3ccc(C#N)cc3)nn2)cc1	Active	–	–	–
COC(=O)c1ccc(-n2cc(CCCOS(=O)(=O)c3ccc(OC)cc3)nn2)cc1	Active	–	–	–
COC(=O)c1ccc(-n2cc(CCCOS(=O)(=O)c3ccc(C(=O)OC)cc3)nn2)cc1	Active	–	–	–
